# Data: article PMC9518264, “Design and synthesis of novel quinazolinone-based derivatives as EGFR inhibitors with antitumor activity” (Journal of Enzyme Inhibition and Medicinal Chemistry, 2022)
# Columns and labels:
# MCF7 = assay: cells; type: cell-based; conditions: MCF7, 5 doses
# ACHN = assay: cells; type: cell-based
# U251 = assay: cells; type: cell-based
# PC-3 = assay: cells; type: cell-based
# [1] = test system: panel of 60 tumour cell lines; assay: NCI 60 cell line antiproliferative screening (SRB), whole panel or subpanels (means, ranges, words); type: cell-based, human
# SF-539 = assay: cells; type: cell-based
# HOP-92 = assay: cells; type: cell-based
# MDA-MB-468 = assay: NCI 60 cell line antiproliferative screening (SRB), Breast cancer
# SNB-19 = assay: cells; type: cell-based
# MOLT-4 = assay: cells; type: cell-based
# MALME-3M = assay: cells; type: cell-based
# HT29 = assay: cells; type: cell-based
# COLO-205 = assay: cells; type: cell-based
# SK-MEL-28 = assay: cells; type: cell-based
# DU-145 = assay: cells; type: cell-based
# MDA-MB-231/ATCC = assay: NCI 60 cell line antiproliferative screening (SRB), Breast cancer; type: cell-based
# SN12C = assay: cells; type: cell-based
# SW-620 = assay: cells; type: cell-based
# RPMI-8226 = assay: cells; type: cell-based
# CCRF-CEM = assay: cells; type: cell-based
# HCT-116 = assay: cells; type: cell-based
# NCI-H322M = assay: cells; type: cell-based
# LOX IMIV = assay: cells; type: cell-based
# SK-OV-3 = assay: cells; type: cell-based
# [2] = Homo sapiens, 5 doses, read-out: LC50 (the source's name)
# [3] = Homo sapiens, read-out: growth inhibition % (GI%)
smiles,measurement,setting,value
"O=C(CSc1nc2ccccc2c(=O)n1-c1ccc(Cl)cc1)NN=Cc1ccc(Oc2ccc(Cl)cc2)cc1 [6d, N'-(4–(4-chlorophenoxy)benzylidene)-2-((3–(4-chlorophenyl)-4-oxo-3,4-dihydroquinazolin-2-yl)thio)acetohydrazide]",CC50,"MCF7; Homo sapiens, read-out: LC50 (the source's name)",25.6 µM
same,TGI,MCF7,5.5 µM
same,TGI,ACHN; 5 doses,15.2 µM
same,GI50,ACHN; Homo sapiens,4.36 µM
same,CC50,ACHN; [2],39 µM
same,inhibition at 10 µM,ACHN; [3],36.5%
same,GI50,"U251; Homo sapiens, U-251",1.65 µM
same,inhibition at 10 µM,"U251; Homo sapiens, U-251, read-out: growth inhibition % (GI%)",> 100%
same,CC50,"U251; Homo sapiens, U-251, U251, 5 doses, read-out: LC50 (the source's name)",8.23 µM
same,TGI,"U251; U251, 5 doses",3.69 µM
same,GI50,"PC-3; Homo sapiens, PC-3",2.58 µM
same,inhibition at 10 µM,"PC-3; Homo sapiens, PC-3, read-out: growth inhibition % (GI%)",99.2%
same,CC50,"PC-3; Homo sapiens, PC-3, 5 doses, read-out: LC50 (the source's name)",> 100 µM
same,TGI,"PC-3; PC-3, 5 doses",9.32 µM
same,GI50,"[1]; Homo sapiens, 60 cell, read-out: GI50 range against most of the tested cancer cell lines",1.29 to 5.97 µM
same,inhibition at 10 µM,"[1]; Homo sapiens, 60 cell, read-out: Mean growth inhibition % (mean GI%)",80.2%
same,TGI range against the rest of cell lines,"[1]; five dose concentrations, good to moderate cytostatic activity",11.1 to 48.5 µM
same,TGI range against 40 cancer cell lines,"[1]; five dose concentrations, high cytostatic activity",2.59 to 9.55 µM
same,GI50,"SF-539; Homo sapiens, SF-539",2.54 µM
same,inhibition at 10 µM,"SF-539; Homo sapiens, SF-539, read-out: growth inhibition % (GI%)",30.3%
same,CC50,"SF-539; Homo sapiens, SF-539, 5 doses, read-out: LC50 (the source's name)",21.5 µM
same,TGI,"SF-539; SF-539, 5 doses",6.32 µM
same,TGI,"HOP-92; HOP-92, 5 doses",5.62 µM
same,GI50,"HOP-92; Homo sapiens, HOP-92",2.07 µM
same,inhibition at 10 µM,"HOP-92; Homo sapiens, HOP-92, read-out: growth inhibition % (GI%)",97.4%
same,LC50 (concentration killing 50% of cells),"HOP-92; Homo sapiens, HOP-92, 5 doses",22.8 µM
same,GI50,"MDA-MB-468; Homo sapiens, MDA-MB-468",2.08 µM
same,CC50,"MDA-MB-468; Homo sapiens, MDA-MB-468, read-out: LC50",18.8 µM
same,inhibition at 10 µM,"MDA-MB-468; Homo sapiens, MDA-MB-468, read-out: growth inhibition % (GI%)",> 100%
same,TGI,"MDA-MB-468; MDA-MB-468, 5 doses",5.08 µM
same,GI50,"SNB-19; Homo sapiens, SNB-19",3.36 µM
same,inhibition at 10 µM,"SNB-19; Homo sapiens, SNB-19, read-out: growth inhibition % (GI%)",71.5%
same,CC50,"SNB-19; Homo sapiens, SNB-19, 5 doses, read-out: LC50 (the source's name)",53.2 µM
same,TGI,"SNB-19; SNB-19, 5 doses",12.7 µM
same,GI50,"MOLT-4; Homo sapiens, MOLT-4",2.29 µM
same,inhibition at 10 µM,"MOLT-4; Homo sapiens, MOLT-4, read-out: growth inhibition % (GI%)",> 100%
same,CC50,"MOLT-4; Homo sapiens, MOLT-4, 5 doses, read-out: LC50 (the source's name)",44.7 µM
same,TGI,"MOLT-4; MOLT-4, 5 doses",9.23 µM
same,GI50,"MALME-3M; Homo sapiens, Malme-3M",1.38 µM
same,inhibition at 10 µM,"MALME-3M; Homo sapiens, Malme-3M, read-out: growth inhibition % (GI%)",> 100%
same,CC50,"MALME-3M; Homo sapiens, MALME-3M, 5 doses, read-out: LC50 (the source's name)",5.55 µM
same,TGI,"MALME-3M; MALME-3M, 5 doses",2.77 µM
same,TGI,"HT29; HT29, 5 doses",11.1 µM
same,GI50,"HT29; Homo sapiens, HT-29",2.14 µM
same,inhibition at 10 µM,"HT29; Homo sapiens, HT-29, read-out: growth inhibition % (GI%)",98.2%
same,LC50 (concentration giving 50% net cell kill),"HT29; Homo sapiens, HT-29, HT29, 5 doses",> 100 µM
same,TGI,"COLO-205; COLO 205, 5 doses",8.74 µM
same,GI50,"COLO-205; Homo sapiens, COLO 205",2.79 µM
same,inhibition at 10 µM,"COLO-205; Homo sapiens, COLO 205, read-out: growth inhibition % (GI%)",85.4%
same,LC50,"COLO-205; Homo sapiens, COLO 205, 5 doses",91.6 µM
same,GI50,"SK-MEL-28; Homo sapiens, SK-MEL-28",1.51 µM
same,inhibition at 10 µM,"SK-MEL-28; Homo sapiens, SK-MEL-28, read-out: growth inhibition % (GI%)",96.8%
same,CC50,"SK-MEL-28; Homo sapiens, SK-MEL-28, 5 doses, read-out: LC50 (the source's name)",6.01 µM
same,TGI,"SK-MEL-28; SK-MEL-28, 5 doses",3.01 µM
same,TGI,"DU-145; DU-145, 5 doses",20.4 µM
same,GI50,"DU-145; Homo sapiens, DU-145",3.52 µM
same,inhibition at 10 µM,"DU-145; Homo sapiens, DU-145, read-out: growth inhibition % (GI%)",86.9%
same,CC50,"DU-145; Homo sapiens, DU-145, 5 doses, read-out: LC50 (the source's name)",> 100 µM
same,GI50,"MDA-MB-231/ATCC; Homo sapiens, MDA-MB-231",1.79 µM
same,inhibition at 10 µM,"MDA-MB-231/ATCC; Homo sapiens, MDA-MB-231, read-out: growth inhibition % (GI%)",69.6%
same,CC50,"MDA-MB-231/ATCC; Homo sapiens, MDA-MB-231/ATCC, 5 doses, read-out: LC50 (the source's name)",8.51 µM
same,TGI,"MDA-MB-231/ATCC; MDA-MB-231/ATCC, 5 doses",3.9 µM
same,TGI,SN12C; 5 doses,4.14 µM
same,GI50,SN12C; Homo sapiens,1.74 µM
same,CC50,SN12C; [2],9.84 µM
same,inhibition at 10 µM,SN12C; [3],54.8%
same,GI50,"SW-620; Homo sapiens, SW-620",1.81 µM
same,inhibition at 10 µM,"SW-620; Homo sapiens, SW-620, read-out: growth inhibition % (GI%)",97.4%
same,CC50,"SW-620; Homo sapiens, SW-620, 5 doses, read-out: LC50 (the source's name)",42.4 µM
same,TGI,"SW-620; SW-620, 5 doses",7.84 µM
same,GI50,"RPMI-8226; Homo sapiens, RPMI-8226",2.98 µM
same,inhibition at 10 µM,"RPMI-8226; Homo sapiens, RPMI-8226, read-out: growth inhibition % (GI%)",75.3%
same,CC50,"RPMI-8226; Homo sapiens, RPMI-8226, 5 doses, read-out: LC50 (the source's name)",> 100 µM
same,TGI,"RPMI-8226; RPMI-8226, 5 doses",15.8 µM
same,TGI,CCRF-CEM; 5 doses,48.5 µM
same,GI50,CCRF-CEM; Homo sapiens,3.09 µM
same,CC50,CCRF-CEM; [2],> 100 µM
same,inhibition at 10 µM,CCRF-CEM; [3],> 100%
same,TGI,"HCT-116; HCT-116, 5 doses",3.74 µM
same,GI50,"HCT-116; Homo sapiens, HCT-116",1.55 µM
same,inhibition at 10 µM,"HCT-116; Homo sapiens, HCT-116, read-out: growth inhibition % (GI%)",> 100%
same,CC50,"HCT-116; Homo sapiens, HCT-116, 5 doses, read-out: LC50 (the source's name)",9.03 µM
same,TGI,NCI-H322M; 5 doses,15.0 µM
same,GI50,NCI-H322M; Homo sapiens,3.02 µM
same,CC50,NCI-H322M; [2],90.8 µM
same,inhibition at 10 µM,NCI-H322M; [3],< 15%
same,inhibition at 10 µM,"LOX IMIV; Homo sapiens, 60 cell, read-out: growth inhibition % (GI%)",> 100%
same,GI50,"LOX IMIV; Homo sapiens, LOX IMVI",1.29 µM
same,CC50,"LOX IMIV; Homo sapiens, LOX IMVI, 5 doses, read-out: LC50 (the source's name)",5.2 µM
same,TGI,"LOX IMIV; LOX IMVI, 5 doses",2.59 µM
same,GI50,"SK-OV-3; Homo sapiens, SK-OV-3",3.26 µM
same,inhibition at 10 µM,"SK-OV-3; Homo sapiens, SK-OV-3, read-out: growth inhibition % (GI%)",66.2%
same,CC50,"SK-OV-3; Homo sapiens, SK-OV-3, 5 doses, read-out: LC50 (the source's name)",49.4 µM
same,TGI,"SK-OV-3; SK-OV-3, 5 doses",11.9 µM
